Experimental data published in patent US11248022B2, “Glypican-3 peptide reagents and methods” (THE REGENTS OF THE UNIVERSITY OF MICHIGAN, priority 2017, dated 2022).
Ends that are not written are not given here.

Columns and labels:
[1] = tested on: SK-Hep1 cells; experiment: Confocal microscopy of peptide binding to SK-Hep1 cells; assay type: cell-based, human
Procedure: FIGS. 6-2A-Q show validation of specific peptide binding to cells in vitro. […] The Hep3B versus SK-Hep1 difference was also larger for antibody than QLE (P=2.3×10^−8, 6.0-fold larger). Intensity was measured with 6 replicates per condition and fitted to an ANOVA model with terms for 9 means to log-transformed data. […] We further validated specific peptide binding to GPC3 using siRNA knockdown. […] Q) Quantified fluorescence intensities. The siCL vs siGPC3 difference was 7.4 times bigger for ALL than the same difference for QLE (P=7.8×10^−5), and the difference for antibody was 8.9 times bigger than for QLE (P=2.5×10^−5), by ANOVA on log-transformed data. Results are an average of 6 images collected independently.
On confocal microscopy, it was shown that ALL*-Cy5.5 binds to the surface (arrows) of cells with different levels of GPC3 expression. […] GPC3 is highly overexpressed in Hep3B cell cytosol and membrane while moderately expressed in HepG2 cells. No GPC3 expression is observed in SK-Hep1 cells. Tubulin serves as loading control for either cytosol or membrane fractions loaded.

[2] = tested on: Hep3B xenograft; experiment: In vivo NIR laparoscopic imaging of HCC xenograft tumors; parameters: species or system mice
Procedure: Human HCC cells Hep3B and SK-Hep1 were cultured in Eagle's Minimum Essential Medium (EMEM) at 37° C. in 5% CO2, and supplemented with 10% fetal bovine serum (FBS) and 1% penicillin/streptomycin. Western blotting was performed to validate expression level of GPC3. Cells were diluted in growth factor reduced (GFR) Matrigel Matrix (Corning), and injected into one flank of female (to avoid male dominance within a cage) nude athymic mice (nu/nu, Jackson Laboratory) at 4 to 6 weeks of age with weight between 20 to 25 grams. ˜5×10^6 cells were implanted per mouse.
A standard surgical laparoscope (#49003 AA, HOPKINS® II Straight Forward Telescope 0°, Karl Storz) that is ˜10 mm in diameter and has a 31 cm length rigid sheath was adapted to collect reflectance and fluorescence concurrently. Nude mice with human HCC xenograft 2 weeks post implantation were tail vein injected with 200 μL 300 μM GPC3 peptide ALL*-Cy5.5. During imaging, the mice were anesthetized with inhaled isoflurane. We first used laparoscope with white light illumination to exam the xenograft. Laparoscopic images were taken two hours post injection in both fluorescence and reflection mode simultaneously with excitation solid state diode laser (660-S, Toptica Photonics) to deliver excitation at λex=660 nm into the fiber optic light guide. Images were collected at 5 frames/sec with a laser power of 1.2 mW. Hoechst 33342 (H1399, Life Technologies) at a dose of 10 mg/kg diluted in 200 μL of PBS was delivered intravenously via a tail vein injection to stain the cell nuclei 30 minutes before sacrificing the mouse. Xenograft tumors were resected and confocal fluorescence images were collected with Cy5.5 and DAPI filters 50 μm beneath the surface using a confocal microscope (Leica SPSX Upright 2-Photon Confocal Microscope). Following imaging, resected xenografts were fixed and formalin embedded for immunohistochemistry and H&E staining as described previously.
Fluorescence images of mouse HCC xenograft taken at 2 hrs post peptide injection were registered with corresponding reflectance images taken simultaneously. The fluorescence intensity of each pixel in the image was divided by intensity of corresponding pixel in the reflectance image in order to account for the difference in distance between each pixel and the laser source. A heat map image was generated from the resulting ratios at each pixel. Image segmentation was performed automatically by custom Matlab (Mathworks) software program using Ostu's Method [Otsu, Automatica, 11(285-296): 23-27 (1975)]. Target to background ratio of each processed image was calculated by dividing the average intensity of pixels inside the segmented tumor and that of those within 30 pixels outside of segmentation outline.

## ALLANHEELFQT (SEQ ID NO: 1) peptide labeled with Cy5.5 via a GGGSK linker on the C-terminus (ALLANHEELFQTGGGSK-{Cy5.5}) [ALL*-Cy5.5]
[1]
  fluorescence intensity from binding to cell surface: minimal signal
[2]; 40× magnification
  staining of cell surface on excised tumor xenograft (confocal): intense staining
[2]; NIR laparoscope, 2 hours
  T/B ratio relative to QLE*-Cy5.5: 2.8 fold
[2]; NIR laparoscope, 2 hours after i.v. injection, n=8
  target-to-background (T/B) ratio: 8.3±1.3
